Assay [1] has as its system MOLM-14 cell line. Kind of assay: Combination of XXIV-3 and Cytarabine, Bliss independence model. It is filed as cell-based, human. To be noted: XXIV-3 associated with Cytarabine, 72 h. The protocol:
The human leukemia cell line MOLM-14 was cultured in Minimum Essential Medium Alpha Medium (MEM) supplemented with 10% Fetal Bovine Serum (FBS) and 1% Penicillin-Streptomycin and maintained at 37° C. with 5% CO2. 30,000 cells in 180 μL of MEM 5% FBS 1% P/S were plated onto 96-well plates immediately before the assay. Compounds were added at different concentrations (combinations of five concentrations of XXIV-3 and six concentrations of Cytarabine) to each well, and cell cultures were incubated for 72 h. Vehicle (H2O) was used as a control, and all compounds were tested in a constant percentage of vehicle. Cell outgrowth was measured using the CellTiter-Glo luminescent cell viability assay as described by the manufacturer (Promega, Ref G7571 Madison, Wis., USA) using an Infinite F200 Pro TECAN plate reader. […]
(§1) The effects of drug-drug combinations are evaluated in the Bliss independence model (Prichard M. N. and Shipman C. Jr. Antivir. Res. 1990 (14) 181-205; Prichard, M. L. et al. Antimicrob Agents Chemother 1993(37) 540-545). The theoretical additive effect is calculated from the dose-response curves of individual compounds by the equation: Z=X+Y(1−X) (7) Where: • Z represents the total inhibition produced by the combination of drugs X and Y. • X and Y represent the inhibition produced by drugs X and Y alone, respectively. […]

The test system of assay [2] is BxPC-3. In words: Cell viability assay, pancreatic cancer cell lines. The format is cell-based. To be noted: Homo sapiens; BxPC-3 (Pancreas); 48 h. The protocol: (§2) MiaPaCa-2, Panc-1 cells were grown in Dulbecco's modified eagle's medium (DMEM) (Gibco) supplemented with 10% fetal bovine serum (FBS), while BxPC-3, Capan-1, Capan-2 cells were grown in Roswell Park Memorial Institute 1640 (RPMI 1640) (Gibco) supplemented with 10% FBS. Gemcitabine (Gemzar) was purchased from Lilly France S.A.S (Suresnes, France). (3-(4,5-dimethylthiazol-2-yl)-2,5diphenyltetrazolium bromide, MTT) was purchased from Sigma-Aldrich.
(§3) BxPC-3, MiaPaCa-2, Panc-1 cells were seeded into a 96-well plate at 10,000 10,000 15,000 cells per well respectively, while Capan-1 and Capan-2 cells at 20,000 cells per well and allowed to adhere overnight. Then the culture medium was removed and replaced with fresh media alone as control or containing various concentrations of different compounds. In dose-dependent assay, the cells were treated with compound XIX-3 at the concentration varying from 0.1 μM to 100 μM while the cells being cultured by fresh media alone were used as control. After 48 h treatment, the number of remained viable cells was determined by (3-(4,5-dimethylthiazol-2-yl)-2,5diphenyltetrazolium bromide, MTT) colorimetric assay (see Sigma Aldrich protocol and Riss T. L. et al. Cell Viability Assays in Assay Guidance Manual 2013 ppl.). All experiments were done in duplicate and repeated two independent times.

Assay [3] has as its system Capan-2. Kind of assay: Cell viability assay, pancreatic cancer cell lines. It is filed as cell-based. To be noted: Homo sapiens; Capan-2 (Pancreas); 48 h. How it is done: as §2, §3
The test system of assay [4] is MIA PaCa-2. Kind of assay: Cell viability assay, pancreatic cancer cell lines. It is filed as cell-based. To be noted: Homo sapiens; MIA PaCa-2 (Pancreas); 48 h. How it is done: as §2, §3
Assay [5] relates to Panc-1. Kind of assay: Cell viability assay, pancreatic cancer cell lines. It is filed as cell-based. To be noted: Homo sapiens; Panc-1 (Pancreas); 48 h. How it is done: as §2, §3
Assay [6] relates to B16F10. In words: CellTiter-Glo cell viability assay (example 57). To be noted: Mus musculus, B16-F10; B16F10 (Melanoma); Cell Titer-Glo; 72 h. It is filed as cell-based, human. (In general: ATP-based viability assays read luminescence as a measure of living cells.)
Assay [7] has as its system U87-MG. Kind of assay: CellTiter 96 Aqueous One Solution (MTS) cell proliferation assay. The note with it: Homo sapiens, U-87 MG; U87-MG (Glioma); Cell Titer 96 Aqueous One Solution; 72 h; mean of seven independent triplicate assays. The format is cell-based. The protocol: The human glioblastoma cell line U87-MG was cultured in Minimum Essential Medium (Life Invitrogen, 31095029) supplemented with 10% fetal bovine serum (GIBCO, 10500-056) and 1 % penicillin-streptomycin (GIBCO, 15140-122). Flasks and plated used for the cell culture were coated with 25 μg/mL poly-D-lysine (Sigma, P7280).
Cell outgrowth was measured using a tetrazolium compound (3-[4,5-dimethylthiazol-2-yl]-5-[3-carboxymethoxyphenyl]-2-[4-sulfophenyl]-2H tetrazolium, inner salt [MTS]) from the CellTiter 96® Aqueous One Solution Cell Proliferation Assay (Promega, Ref G3580) and according to the manufacturer procedure.
5000 cells were plated onto 96-well plates in 100 μL of media per well and were allowed to grow overnight before the assay. Compounds were added at different concentrations to each well, and cell cultures were incubated for 72 h. Control compound was the diluent used for compound resuspension (H2O). After addition of 20 μL of CellTiter 96® Aqueous One Solution, absorbance at 492 nm was measured using a microplate reader Sunrise (Tecan). EC50 values were determined as the dose of compound required to reduce […] values to 50% of the signal obtained for untreated cell cultures. […] The experimental data are analyzed using a computer program, Graphpad Prism (GraphPad Software, Inc. La Jolla, Calif.).

Assay [8] relates to SK-MEL-28 cell line. In words: Combination of XIX-3 and Zelboraf, Bliss independence model. The note with it: XIX-3 associated with Zelboraf, 72 h. It is filed as cell-based, human. The protocol: The human melanoma cell line SK-MEL-28 was cultured in Minimum Essential Medium (MEM) supplemented with 10% Fetal Bovine Serum and 1% Penicillin-Streptomycin and maintained at 37° C. with 5% CO2.
SK-MEL-28 cells were plated at 2,500 cells per well onto 96-well plates in 90 μL of media per well and were allowed to grow overnight before the assay. XIX-3 and Zelboraf, a compound used for treatment for BRAF V600E mutation-positive metastatic melanoma, were added at different concentrations (combinations of five concentrations of XIX-3 and six concentrations of Zelboraf) to each well, and cell cultures were incubated for 72 h. […] Cell outgrowth was measured using a […] Aqueous One Solution Cell Proliferation Assay (Promega) and a TECAN Sunrise plate reader.
as §1, with “In each experiment, each point represents the average of triplicates in cell culture. The effects” for “The effects”, “Agents Chemother 1993 (37) 540-545). The” for “Agents Chemother 1993(37) 540-545). The”

SMILES strings stand for the structures.

Two compounds from patent US10179770B2, “Quinolines derivatives as novel anticancer agents” (GENOSCIENCE PHARMA, priority 2013, dated 2019) can be followed below.

On to `CCN(CC)C1CCN(C(C)c2cc(-c3ccc4ccccc4c3)nc3ccccc23)CC1.Cl.Cl` (centres unmarked) [XXIV-3, 2-(2-naphtyl)-4-{1-[4-(N,N-diethylamino)-piperidin-1-yl]-eth-1-yl}quinoline dihydrochloride], for which the “Combination effect on cell viability (Bliss independence model)” value in assay [1] is “additive effect (between −20% to +20% indicates additive effect)”.
Turning to `CCN(CC)C1CCN(C(C)c2cc(-c3ccccc3)nc3ccccc23)CC1.Cl.Cl` (centres unmarked) [XIX-3, 2-phenyl-4-{1-[4-(N,N-diethylamino)piperidin-1-yl]-eth-1-yl}quinoline dihydrochloride], the concentration giving a half-maximal response (EC50) (in general, the concentration at which the effect is half-maximal) was 33 µM in assay [2]; 32 µM in assay [3]; 34 µM in assay [4]; 34 µM in assay [5]; 10 µM in assay [6]; 26 µM in assay [7]. Moreover, the “Combination effect on cell viability (Bliss independence model)” value in assay [8] was “additive effect (between −20% to +20% indicates additive effect)”.
